pIC50: −log10 of the molar value. Where two headings read alike, the source gives them in different places.
Legend:
HBV = assay: Efficacy of daily dosing for HBV; assay type: in vivo, human; details: 5 mg QD dose
Procedure: (§1) From the foregoing results, a therapeutic window of Elvucitabine was identified. It has been determined that a 5 mg QD dose is effective for HBV and, therefore, a plasma AUCss/24 of 300 μg·h/L was identified as the efficacy threshold.

[1] = PK/PD relationship: toxicity threshold and therapeutic window (simulated concentrations vs observed ANC); set-up: species or system human
Description: Pharmacokinetics and pharmacodynamics modeling was used to explore potential dosing regimens for Elvucitabine. A pharmacokinetics (PK) model was developed to describe both the plasma concentration-time data and excreted urinary amounts from previously completed studies with Elvucitabine. With the PK model in hand and pharmacodynamics (PD) results of previously completed studies, the relationship of PK and PD from an efficacy and toxicity standpoint is obtained. From the results of the PK and PD studies, a therapeutic window of Elvucitabine is defined and simulated dosing regimens ranging from 5 mg BID to 100 mg Q1 week were explored using ADAPT II® Pharmacokinetic and Pharmacodynamic Systems Analysis Software. From the simulated dosing regimen results, ten dosing regimens were identified allowing maintenance therapy with Elvucitabine at levels effective against both HIV and HBV while avoiding bone toxicity.
FIG. 5 provides a plot of the mean observed ANC and a simulated concentration-time profile for the 5 mg QD dose. As shown by the graph, the toxicity threshold is not met by the dosing regimen. As provided in FIG. 6, the 20 mg QD dose crosses the toxicity threshold at about 1008 hours.
as §1

[2] = Hematology (ANC, white blood cell count) in 12 week study in HBV patients; assay type: in vivo, human
Procedure: Pharmacodynamics of Elvucitabine was explored by analysis of hematology (absolute neutrophil count, ANC) data obtained from a 12 week study in HBV patients. FIG. 3 illustrates the change in mean white blood cell count from baseline for three dosages of Elvucitabine (5 mg, 20 mg, and 50 mg), 100 mg 3TC, and placebo. […] FIG. 4 is a graphic representation of the change in absolute neutrophils from baseline for the same study. Table 2 provides absolute neutrophil count at 10^9/L for the three doses resulting in a baseline estimated as the mean ANC of about 4×10^9/L. A 25 percent decrease in the mean ANC corresponds to about 3×10^9/L, the threshold for the start of toxicity.

[3] = Population PK analysis of plasma and urine data, healthy subjects, 1×20 mg tablet PO (ACH443-011); details: human, in vivo
Procedure: The PK model created included an individual compartmental PK analysis using ADAPT-II® and Population PK analysis using an iterative two-stage population modeling technique (IT2S®) of plasma and urine data from a study of healthy subjects, n=29, 1×20 mg tablet PO (ACH443-011). FIG. 1 illustrates the PK model of Elvucitabine according to a three compartment model characterized by two absorption peaks, each associated with a lag (Tlag1 and Tlag2) time and a first order absorption rate constant (Ka1 and Ka2).
FIG. 2 illustrates an example of individual fit using a Population PK analysis (IT2S).

HIV = assay: In vitro IC50 for HIV; assay type: cell-based; details: Human immunodeficiency virus 1
Procedure: as §1

Structure (SMILES): Nc1nc(=O)n([C@H]2C=C[C@@H](CO)O2)cc1F [Elvucitabine, 4-amino-5-fluoro-1-((2R,5 S)-5-(hydroxymethyl)-2,5-dihydrofuran-2-yl)pyrimidin-2(1H)-one]
- efficacy for HBV (HBV): effective
- central compartment (plasma) Cmin correlating with onset of toxicity [1]: ≥ 23 ng/mL
- toxicity threshold (mean ANC about 3×10^9/L) ([1]; 5 mg QD, FIG. 5): not met
- time at which toxicity threshold (mean ANC about 3×10^9/L) is crossed ([1]; 20 mg QD, FIG. 6): about 1008 hours
- time at which toxicity threshold (mean ANC about 3×10^9/L) is reached ([1]; 50 mg QD, FIG. 7): 378 hours
- Cmin for efficacy ([1]; HIV, based on in vitro IC50): ≥ 2 ng/mL
- plasma AUCss/24 efficacy threshold ([1]; from 5 mg QD effective for HBV): 300 ng·h/mL
- Cmax in deepest (P1) compartment at onset of toxicity (ANC <3×10^9/L) ([1]; human): > 40 μg/L
- Absolute Neutrophil Count (ANC), Mean ([2]; 5 mg PO daily (n = 17), Week 0): 4.1 10^9/L
- Absolute Neutrophil Count (ANC), Mean ([2]; 5 mg PO daily (n = 17), Week 2): 3.4 10^9/L
- Absolute Neutrophil Count (ANC), Mean ([2]; 5 mg PO daily (n = 17), Week 4): 3.4 10^9/L
- Absolute Neutrophil Count (ANC), Mean ([2]; 5 mg PO daily (n = 17), Week 8): 3.5 10^9/L
- Absolute Neutrophil Count (ANC), Mean ([2]; 5 mg PO daily (n = 17), Week 12): 3.6 10^9/L
- Absolute Neutrophil Count (ANC), Mean ([2]; 20 mg PO daily (n = 20), Week 0): 3.8 10^9/L
- Absolute Neutrophil Count (ANC), Mean ([2]; 20 mg PO daily (n = 20), Week 2): 3.7 10^9/L
- Absolute Neutrophil Count (ANC), Mean ([2]; 20 mg PO daily (n = 20), Week 4): 3.2 10^9/L
- Absolute Neutrophil Count (ANC), Mean ([2]; 20 mg PO daily (n = 20), Week 8): 2.8 10^9/L
- Absolute Neutrophil Count (ANC), Mean ([2]; 20 mg PO daily (n = 20), Week 12): 2.7 10^9/L
- change in mean white blood cell count from baseline ([2]; 50 mg (highest dose), HBV patients, FIG. 3): significant decrease
- Absolute Neutrophil Count (ANC), Mean ([2]; 50 mg PO daily (n = 19), Week 0): 4.1 10^9/L
- Absolute Neutrophil Count (ANC), Mean ([2]; 50 mg PO daily (n = 19), Week 2): 3.1 10^9/L
- Absolute Neutrophil Count (ANC), Mean ([2]; 50 mg PO daily (n = 19), Week 4): 2.3 10^9/L
- Absolute Neutrophil Count (ANC), Mean ([2]; 50 mg PO daily (n = 19), Week 8): 2.2 10^9/L
- Absolute Neutrophil Count (ANC), Mean ([2]; 50 mg PO daily (n = 19), Week 12): 2.6 10^9/L
- Vd [3]: 1600 L
- fraction of drug excreted unchanged in urine [3]: about 40%
- half-life ([3]; distribution (λ2) half-life): 30 h
- half-life ([3]; early distribution (λ1) half-life): 0.59 h
- half-life ([3]; elimination (λz) half-life): 175 h
- CLnr/F ([3]; po): 9.51 L/h
- Fu ([3]; po): 39.6%
- Vc/F ([3]; po): 30.6 L
- Vp1/F ([3]; po): 1232 L
- Vp2/F ([3]; po): 369 L
- oral clearance (CL/F) ([3]; po): 16 L/h
- CL renal ([3]; po, 20 mg): 105 mL/min
- CL/F ([3]; po, 20 mg): 15.8 L/h
- Vd/F ([3]; population PK, healthy subjects, 20 mg tablet PO, read-out: Vss/F): 1630 L
- IC50 (HIV; corresponds to 4.8 nM, read-out: in vitro IC50 for HIV, as concentration): 1.08 ng/mL
- pIC50 (HIV; read-out: in vitro IC50 for HIV): 8.32
